Reference: patent US20240182465A1 (GENFLEET THERAPEUTICS (SHANGHAI) INC., priority 2021, published 2024)
Where a name gives a salt, the structure may show the parent alone.

What was measured:
[1] = target: HPK1 (Homo sapiens, UniProt Q92918); assay: SLP76 phosphorylation assay (intracellular HPK1 inhibitory activity, p-SLP76 Ser376 sandwich ELISA); details: p-SLP76 IC50(nM), Jurkat, Clone E6-1 cells; 1 h compound pre-incubation, anti-CD3 beads stimulation 20 min; SLP76 phosphorylation at S376
Target sequence in this assay (Q92918 whole entry): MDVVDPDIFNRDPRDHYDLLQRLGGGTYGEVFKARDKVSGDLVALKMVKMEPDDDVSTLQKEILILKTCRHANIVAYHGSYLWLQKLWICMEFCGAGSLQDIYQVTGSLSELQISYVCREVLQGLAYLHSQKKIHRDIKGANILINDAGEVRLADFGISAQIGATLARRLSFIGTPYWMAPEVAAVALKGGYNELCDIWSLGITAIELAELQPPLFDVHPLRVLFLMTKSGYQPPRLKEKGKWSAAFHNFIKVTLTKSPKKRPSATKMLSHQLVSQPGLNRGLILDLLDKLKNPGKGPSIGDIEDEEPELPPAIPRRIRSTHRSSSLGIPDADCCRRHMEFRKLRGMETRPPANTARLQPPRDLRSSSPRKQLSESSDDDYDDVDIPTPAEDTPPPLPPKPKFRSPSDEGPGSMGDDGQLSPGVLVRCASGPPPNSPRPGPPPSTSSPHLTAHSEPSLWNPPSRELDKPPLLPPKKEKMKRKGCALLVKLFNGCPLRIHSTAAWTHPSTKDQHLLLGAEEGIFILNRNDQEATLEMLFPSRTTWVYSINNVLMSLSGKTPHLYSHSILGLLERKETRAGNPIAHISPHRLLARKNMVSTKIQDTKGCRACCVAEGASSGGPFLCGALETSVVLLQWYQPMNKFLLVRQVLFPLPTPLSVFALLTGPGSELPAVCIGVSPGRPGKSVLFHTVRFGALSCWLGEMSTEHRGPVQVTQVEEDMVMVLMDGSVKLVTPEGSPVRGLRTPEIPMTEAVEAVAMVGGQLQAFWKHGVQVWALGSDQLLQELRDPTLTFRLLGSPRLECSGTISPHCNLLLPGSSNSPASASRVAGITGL
Method: Intracellular HPK1 inhibitory activity was tested by the detection of SLP76 phosphorylation at S376.
(§1) Preparation of 1000× drug stock plate: a 1000× compound stock plate was prepared. […] The compound stock plate was sealed with a sealing film and stored in a −20° C. refrigerator for later use.
Preparation of Beads wash buffer: 0.1 mL FBS and 0.4 mL 0.5 M EDTA (with a final concentration of 2 mM) were added to 100 mL PBS and stored in a 4° C. refrigerator for later use.
100× Protease Inhibitor Cocktail in 1/20 total volume was added and stored on wet ice for later use. The buffer was ready to use.
Cell inoculation and dosing: the 1000× drug stock plate was taken and melted at room temperature in the dark. […] Jurkat cells in the logarithmic growth phase were selected and collected. […] The cells were inoculated into a 96-well plate (the volume was 90 μL per well), and a blank control well (without cells inoculation, and in which 110 μL of medium was added) was set. 10 μL of a drug-containing culture medium (10×) was transferred from the 10× drug intermediate plate into the 96-well cell plate (with a final concentration of 0.1% DMSO), and set a DMSO control group (in which 0.1% DMSO was added to the treated cells), a stimulated control group (in which 10 μL of culture medium was added to treat cells) and an unstimulated group (in which 10 μL of culture medium was added to treat cells). The wells were duplicated, gently patted, mixed, and then placed into a 5% CO2 incubator at 37° C. for 1 h.
Anti-CD3 beads stimulation: Dynabeads anti-human CD3 was taken, shaken, and mixed for 60 s. The required volume of beads was pipetted, and an equal volume or at least 1 mL of washing solution was added to wash once. Fresh complete medium was then added to resuspend and adjust the density of the beads to 4×10^7/mL, and the beads were placed on ice for later use. At the end of drug pre-incubation, the cell culture plate was taken out. 10 μL Dynabeads anti-human CD3 was added to each well to treat the cells, and 10 μL the culture medium was added to the unstimulated group. The cell culture plate was shaken to mix well at 2500 rpm for 10 s, and then placed into a 5% CO2 incubator at 37° C. and continued to culture for 20 min.
Detection of p-SLP76 protein level. PathScan Phospho-SLP-76 (Ser376) Sandwich ELISA Kit was applied to detect p-SLP76 protein level. At the end of the Anti-CD3 beads stimulation, the cell culture plate was removed from the incubator. […] After lysis, the cell culture plate was centrifuged at 4° C., 400×g for 5 min. 25 μL of sample and 75 μL of sample diluent were added to each well, and the plate was placed in a 5% CO2 incubator at 37° C. for 2 h. The subsequent detection steps were carried out following the kit instructions, and the absorbance (OD value) of each well was read at 450 nm by a microplate reader.

[2] = target: T1, HPK1 (Homo sapiens, UniProt Q92918); assay: HPK1 kinase activity assay (ADP-Glo); details: HPK1 Kinase activity IC50 (nM), 1 nM HPK1, 10 μM ATP, 0.1 μg/μL MBP
T1 sequence (Q92918 1-346 limits assumed): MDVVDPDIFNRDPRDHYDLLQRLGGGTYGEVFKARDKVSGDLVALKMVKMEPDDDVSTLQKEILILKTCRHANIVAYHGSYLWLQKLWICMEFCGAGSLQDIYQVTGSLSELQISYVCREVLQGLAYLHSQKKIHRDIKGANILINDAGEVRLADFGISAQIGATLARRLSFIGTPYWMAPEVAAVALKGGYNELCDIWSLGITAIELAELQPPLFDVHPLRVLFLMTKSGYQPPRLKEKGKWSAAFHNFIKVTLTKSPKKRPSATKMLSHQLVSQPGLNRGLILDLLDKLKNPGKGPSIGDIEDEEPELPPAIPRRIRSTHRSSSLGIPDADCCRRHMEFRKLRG
Method: Preparation of buffer: 1× reaction buffer (40 mM Tris-HCl, 20 mM MgCl2, 0.01% Brij35, 50 μM DTT, 0.1 mg/ml BSA) was prepared using sterile water, which was prepared and used on the day of the experiment.
as §1
Compound preparation and dosing: the 1000× drug stock plate was taken and melted at room temperature in the dark. Then 5× drug intermediate plate was prepared using reaction buffer and mixed well. 2 μL was transferred from the 5× drug intermediate plate into a 384-well plate, and negative control well and positive control well (in which 2 μL reaction buffer containing 0.5% DMSO was added) were set. Each point was repeated twice.
Preparation and incubation of reaction mixture: HPK1 protein was diluted to a 2.5× working solution with reaction buffer. 4 μL 2.5×HPK1 protein was added to each well containing test compound and positive control well, and 4 μL of reaction buffer without HPK1 protein was added to the negative control well. The obtained mixture was centrifuged at 1000 rpm for 1 min and then incubated in a 20° C. incubator for 15 min. A 2.5× mixed working solution of MBP protein and ATP was prepared with reaction buffer at concentrations of 0.5 μg/μL and 50 PM, respectively. 4 μL of the mixed working solution of MBP and ATP was added to each well, centrifuged at 1000 rpm for 1 min, and then incubated in a 20° C. incubator for 90 min.
ADP-Glo detection and reading plate: 10 μl ADP-Glo was added to each well of the test plate. The resulting mixture was centrifuged at 1000 rpm for 1 min and incubated in a 20° C. incubator for 60 min. Then 10 μL of the final incubation solution was transferred from the test plate to a new 384-well plate. 10 μL of kinase detection reagent was added to each well, centrifuged at 400 g for 1 min, and incubated in a 20° C. incubator for 60 min. Chemiluminescent signals were read by a microplate reader.

SMILES	IC50 [1]	IC50 [2]
Cc1ccc(C(=O)N2CCc3cc(-c4cnc5[nH]cc(C)c5c4)cc([C@@H]4CCCN4)c3C2)cn1 [Compound Z441, (S)-(6-(3-methyl-1H-pyrrolo[2,3-b]pyridin-5-yl)-8-(pyrrolidin-2-yl)-3,4-dihydroisoquinolin-2(1H)-yl) (6-methylpyridin-3-yl)methanone]	197 nM	0.52 nM
Cc1c[nH]c2ncc(-c3cc4c(c(CN(C)C)c3)C(=O)N(C)CC4)cc12 [Compound Z186, 8-((dimethylamino)methyl)-2-methyl-6-(3-methyl-1H-pyrrolo[2,3-b]pyridin-5-yl)-3,4-dihydroisoquinolin-1(2H)-one]	3760 nM	34.2 nM
N#CCc1c[nH]c2ncc(-c3cc4c(c([C@@H]5CCCN5)c3)COCC4)cc12 (single isomer, unassigned) [Compound Z101-2]	111 nM	0.99 nM
Cc1c[nH]c2ncc(-c3cc4c(c([C@@H]5CCCN5)c3)CCN(C(=O)C3CC3)C4)cc12 [Compound Z302, (S)-cyclopropyl (7-(3-methyl-1H-pyrrolo[2,3-b]pyridin-5-yl)-5-(pyrrolidin-2-yl)-3,4-dihydroisoquinolin-2(1H)-yl)methanone]	125 nM	0.93 nM
CC(C)(O)C(=O)N1CCc2cc(-c3cnc4[nH]cc(Cl)c4c3)cc([C@@H]3COCCN3)c2C1 [Compound Z418-1]	61.3 nM	0.19 nM
Cc1cc(C(=O)N2CCc3cc(-c4cnc5[nH]cc(C)c5c4)cc([C@@H]4CCCN4)c3C2)ccn1 [Compound Z213, (S)-(6-(3-methyl-1H-pyrrolo[2,3-b]pyridin-5-yl)-8-(pyrrolidin-2-yl)-3,4-dihydroisoquinolin-2(1H)-yl) (2-methylpyridin-4-yl)methanone]	318 nM	0.64 nM
Nc1ncc(-c2cc3c(c(C4CCCN4)c2)COCC3)cc1-c1cn[nH]c1 (centres unmarked) [Compound Z93, 3-(1H-pyrazol-4-yl)-5-(8-(pyrrolidin-2-yl)isochroman-6-yl)pyridin-2-amine formate]	439 nM	1.62 nM
Cc1ncc(C(=O)N2CCc3cc(-c4cnc5[nH]cc(C)c5c4)cc([C@@H]4CCCN4)c3C2)cn1 [Compound Z328, (S)-[6-(3-methyl-1H-pyrrolo[2,3-b]pyridin-5-yl)-8-[pyrrolidin-2-yl]-3,4-dihydroisoquinolin-2(1H)-yl](2-methylpyrimidin-5-yl)methanone]	90.7 nM	0.33 nM
Cc1ccncc1C#Cc1c[nH]c2ncc(-c3cc4c(c([C@@H]5CCCN5)c3)COCC4)cc12 [Compound Z237, (S)-3-((4-methylpyridin-3-yl)ethynyl)-5-(8-(pyrrolidin-2-yl)isochroman-6-yl)-1H-pyrrolo[2,3-b]pyridine]	100 nM	0.71 nM
N#CCc1c[nH]c2ncc(-c3cc4c(c(C5CCCN5)c3)COCC4)cc12 (centres unmarked) [Compound Z101, 2-(5-(8-(pyrrolidin-2-yl)isochroman-6-yl)-1H-pyrrolo[2,3-b]pyridin-3-yl)acetonitrile]	163 nM	0.49 nM
C[C@](O)(C(=O)N1CCc2cc(-c3cnc4[nH]cc(Cl)c4c3)cc([C@@H]3CCCN3)c2C1)C(F)(F)F [Compound Z405, (S)-1-(6-(3-chloro-1H-pyrrolo[2,3-b]pyridin-5-yl)-8-((S)-pyrrolidin-2-yl)-3,4-dihydroisoquinolin-2(1H)-yl)-3,3,3-trifluoro-2-hydroxy-2-methylpropan-1-one]	89.8 nM	0.23 nM
Cc1c[nH]c2ncc(-c3cc4c(c([C@@H]5CCCN5)c3)CN(C(=O)c3ccnc(C(C)(C)O)c3)CC4)cc12 [Compound Z327, (S)-(2-(2-hydroxypropan-2-yl)pyridin-4-yl)(6-(3-methyl-1H-pyrrolo[2,3-b]pyridin-5-yl)-8-(pyrrolidin-2-yl)-3,4-dihydroisoquinolin-2(1H)-yl)methanone]	150 nM	0.33 nM
Cc1c[nH]c2ncc(-c3cc4c(c([C@@H]5CCCN5)c3)CN(C(=O)N3CCOC[C@@H]3C)CC4)cc12 [Compound Z358-1]	67.4 nM	0.23 nM
Cc1c[nH]c2ncc(-c3cc4c(c(CN(C)C)c3)COCC4)cc12 [Compound Z103, N,N-dimethyl-1-(6-(3-methyl-1H-pyrrolo[2,3-b]pyridin-5-yl)isochroman-8-yl)methanamine]	545 nM	2.65 nM
Cc1ncncc1C(=O)N1CCc2cc(-c3cnc4[nH]cc(C)c4c3)cc([C@@H]3CCCN3)c2C1 [Compound Z283, (S)-(6-(3-methyl-1H-pyrrolo[2,3-b]pyridin-5-yl)-8-(pyrrolidin-2-yl)-3,4-dihydroisoquinolin-2(1H)-yl) (4-methylpyrimidin-5-yl)methanone]	286 nM	0.3 nM
CC(=O)N1CCc2c(cc(-c3cnc4[nH]cc(C)c4c3)cc2[C@@H]2CCCN2)C1 [Compound Z139, (S)-1-(7-(3-methyl-1H-pyrrolo[2,3-b]pyridin-5-yl)-5-(pyrrolidin-2-yl)-3,4-dihydroisoquinolin-2(1H)-yl)ethan-1-one]	159 nM	0.39 nM
Cc1c[nH]c2ncc(-c3cc4c(c(C(C)N(C)C)c3)COCC4)cc12 (centres unmarked) [Compound Z108-1, N,N-dimethyl-1-(6-(3-methyl-1H-pyrrolo[2,3-b]pyridin-5-yl)isochroman-8-yl)ethan-1-amine]	571 nM	4.12 nM
COCC(=O)N1CCc2cc(-c3cnc4[nH]cc(C)c4c3)cc([C@@H]3CCCN3)c2C1 [Compound Z121, (S)-1-(6-(3-methyl-1H-pyrrolo[2,3-b]pyridin-5-yl)-8-(pyrrolidin-2-yl)-3,4-dihydroisoquinolin-2(1H)-yl)methoxyethyl ketone]	185 nM	0.5 nM
Cc1c[nH]c2ncc(-c3cc4c(c([C@@H]5CCCN5)c3)CN(C(=O)N3CCOC(C)(C)C3)CC4)cc12 [Compound Z362, (S)-(2,2-dimethylmorpholine)(6-(3-methyl-1H-pyrrolo[2,3-b]pyridin-5-yl)-8-(pyrrolidin-2-yl)-3,4-dihydroisoquinolin-2(1H)-yl)methanone]	92.9 nM	0.22 nM
Cc1c[nH]c2ncc(-c3cc4c(c([C@@H]5CCCN5)c3)CN(C(=O)c3cc(C)n(C)n3)CC4)cc12 [Compound Z354]	269 nM	1.02 nM
CC(=O)N1CCc2cc(-c3cnc4[nH]cc(C)c4c3)cc([C@@H]3CCCN3)c2C1 (single isomer, unassigned) [Compound Z98-2]	152 nM	0.5 nM
CC(=O)N1CCc2cc(-c3cnc4[nH]cc(C)c4c3)cc(C3COCCN3)c2C1 (centres unmarked) [Compound Z119]	358 nM	1.54 nM
Cc1c[nH]c2ncc(-c3cc4c(c([C@@H]5CCCN5)c3)CN(C(=O)N3CCC(F)(F)CC3)CC4)cc12 [Compound Z440, (S)-(4,4-difluoropiperidin-1-yl)(6-(3-methyl-1H-pyrrolo[2,3-b]pyridin-5-yl)-8(pyrrolidin-2-yl)-3,4-dihydroisoquinolin-2(1H)-yl)methanone]	142 nM	0.37 nM
CCN1Cc2c(cc(-c3cnc4[nH]cc(C)c4c3)cc2[C@@H]2CCCN2)C1=O [Compound Z236, (S)-2-ethyl-6-(3-methyl-1H-pyrrolo[2,3-b]pyridin-5-yl)-4-(pyrrolidin-2-yl)isoindolin-1-one]	3810 nM	29.6 nM
Cc1c[nH]c2ncc(-c3cc([C@@H]4CCCN4)c4cnccc4c3)cc12 (single isomer, unassigned) [Compound Z3-1]	> 10000 nM	231 nM
